Reference: US20130261133A1, “Therapeutic Compounds for Protozoal and Microbial Infections and Cancer” (THE UNIVERSITY OF MONTANA, priority 2012, published 2013)
“And” between values parts separate entries of the source, which are not always exact repeats. Equal entries are not always repeated. Where two headings read alike, the source gives them in different places.

What was measured:
[1] = system: P. falciparum clone W2/Indochina; assay: In vitro malaria assay, [3H]-hypoxanthine incorporation; assay type: cell-based; conditions: Plasmodium falciparum, W2, 72 h, read-out: IC50 Plasmodium
Description: a. In vitro Parasite Culturing: P. falciparum clone W2/Indochina was grown in continuous culture using RPMI 1640 media containing 10% heat-inactivated type A+ human plasma, sodium bicarbonate (2.4 g/L), HEPES (5.94 g/L) and 4% washed human type A+ erythrocytes. Cultures were gassed with a 90% N2, 5% O2 and 5% CO2 mixture followed by incubation at 37° C. b. Assay Preparation: Test compounds at 5 mg/mL in DMSO were diluted 1:500 and then serially diluted in duplicate over 11 concentrations. P. falciparum cultures with >70% ring stage parasites were diluted to 0.5-0.7% parasitemia and 1.5% hematocrit in RPMI 1640 media. In 96-well plates a volume of 90 μl/well of parasitized erythrocytes was added on top of 10 μL/well of the test compound. A separate plate containing chloroquine, dihydroartemisinin and atovaquone was added to each set of assay plates as control drugs. A Beckman Coulter Biomek 3000 was used to dispense test compounds, control drugs and parasitized erythrocytes into the microtiter plates. Positive and negative controls were included in each plate. Positive controls consisted of parasitized erythrocytes and negative controls consisted of non-parasitized erythrocytes at 1.5% hematocrit in RPMI 1640 media. Assay plates were placed into a modulator incubator chamber and equilibrated with 90% N2, 5% O2 and 5% CO2 mixture then incubated at 37° C. for 48 hours. After 48 hours, approximately 0.05 μCi of [^3H]-hypoxanthine monohydrochloride was added to each well of the assay plates. Plates were put back into the modulator incubation chamber, gassed with the 90% N2, 5% O2 and 5% CO2 mixture then incubated at 37° C. for an additional 24 hours. After 72 hours total incubation time the plates were frozen at −80° C. until later processed for parasite growth determinations. c. Assay Plate Processing: Assay plates were harvested using a Perkin Elmer FilterMate Harvester. The incorporation of [^3H]-hypoxanthine into nucleic acid was measured using a Perkin Elmer Topcount NXT Microplate Scintillation & Luminescence Counter. d. Data Analysis: Data analysis was performed using a custom database manager (Dataspects, Inc). Nonlinear regression analysis was used to calculate EC50.

[2] = system: S. aureus 13709; assay: MIC broth microdilution, Alamar Blue; assay type: cell-based; conditions: minimum inhibitory concentration
[3] = system: E. faecalis; assay: MIC broth microdilution, Alamar Blue; assay type: cell-based; conditions: minimum inhibitory concentration
[4] = system: S. pyogenes; assay: MIC broth microdilution, Alamar Blue; assay type: cell-based; conditions: minimum inhibitory concentration
[5] = system: C. glabrata; assay: MIC broth microdilution, Alamar Blue; assay type: cell-based; conditions: minimum inhibitory concentration
[6] = system: B. subtilis; assay: MIC broth microdilution, Alamar Blue; assay type: cell-based; conditions: minimum inhibitory concentration
[7] = system: P. aeruginosa; assay: MIC broth microdilution, Alamar Blue; assay type: cell-based; conditions: minimum inhibitory concentration
[8] = system: B. anthracis; assay type: cell-based; conditions: minimum inhibitory concentration
[9] = system: C. albicans; assay: MIC broth microdilution, Alamar Blue; assay type: cell-based; conditions: minimum inhibitory concentration
[10] = system: Leishmania donovani; assay: Antileishmanial assay, Leishmania in infected macrophages (L. donovani); conditions: for IC50: Leishmania donovani, Macrophage, read-out: IC50 Leishmania in infected macrophages; for Selectivity Index: IC50 for HepG2 cells/IC50 for Leishmania donovani
[11] = system: Leishmania amazonensis; assay: Antileishmanial assay, Leishmania in infected macrophages (L. amazonensis); conditions: Leishmania amazonensis; for IC50: Macrophage, read-out: IC50 Leishmania in infected macrophages
[12] = system: HepG2 cells; assay: Cytotoxicity against human liver (HepG2) cells, Alamar Blue; assay type: cell-based
Description: Several of these analogues were also evaluated for cytotoxicity against human liver (HepG2) cells. Of particular interest was that compounds 47 and 48 were approximately an order of magnitude less cytotoxic as compared to compound 1.
Adherent cell lines were maintained in Eagle's Minimal Essential Media (Sigma-Aldrich, St. Louis, Mo., USA) with 2 mM glutamine and Earle's Balanced Salt Solution (HyClone, Logan, Utah, USA) adjusted to contain 1.5 g/L sodium bicarbonate, 0.1 mM non-essential amino acids, 1 mM sodium pyruvate and 10% fetal calf serum. Fetal calf serum used in these assays was lot matched throughout. All cultures were maintained under a humidified 5% CO2 atmosphere at 37° C., had media refreshed twice weekly and were subcultured by trypsinization and resuspension at a ratio of 1:5 each week. Toxicity assays were conducted between passages 10-20. Target compound toxicity was measured by incubating the test compound with the cells for 4 hours, washing the cells and finally treating the cells with Alamar Blue. After 12-24 hours, the fluorescence of the reduced dye was measured. Fluorescence intensity as a function of test compound concentration was fit to the Fermi equation, using non-linear least squares regression analysis, to estimate IC50 values.

[13] = system: leishmaniasis (LV82 PM infection), liver parasitemia; assay: In vivo efficacy: liver parasitemia in BALB/c mice with leishmaniasis; conditions: 10 mg/kg i.p.; for % Reduction (Average) in liver parasitemia: infected BALB/c mice
Description: The following protocols were used to prepare the various treatments described in Table 2: • a. Miltefosine ([…] stock solution in sterile PBS): 7.5 mg miltefosine was weighed and put in a eppendorf tube, then 0.75 mL of sterile PBS was added. After vortexing, a clear solution was formed. Make 1 mg/mL solution daily by diluting 100 μL of 10 mg/mL miltefosine solution in 900 μL sterile PBS. • b. Vehicle control: 5% (v/v) DMSO, 50% (v/v) PEG 400, 10% (v/v) Ethanol, and 35% (v/v) distilled water. • c. Compound 47 (2 mg/mL solution of compound 47 in PEG 400/Ethanol vehicle): […]. Dilute the above solution 1:20 with PEG 400/EtOH/water daily. After vortexing and warming up at 37° C. for 30 min., a clear solution formed. • d. Compound 48 (2 mg/mL solution of compound 48 in PEG 400/Ethanol vehicle): 6.8 mg of compound 48 was dissolved in 0.17 mL of DMSO to make a 40 mg/mL stock solution. After vortexing, a yellowish-brown solution was formed. Diluted the above solution 1:20 with PEG 400/EtOH/water daily. After vortexing a clear solution formed. • e. Compound 50 (2 mg/mL solution of compound 50 in PEG 400/Ethanol vehicle): 8.4 mg of compound 50 was dissolved in 0.21 mL of DMSO to make a 40 mg/mL stock solution. After vortexing, a dark yellowish-brown solution was formed. Diluted the above solution 1:20 with PEG 400/EtOH/water. After vortexing a clear solution formed.
(§1) Compounds 47, 48, and 50 were then evaluated in animal studies with BALB/c mice with leishmaniasis. Compounds were delivered via i.p. injection at 10 mg/kg, with untreated, vehicle, and miltefosine controls as described in Table 2. […] Miltefosine, the only oral treatment currently available to treat leishmaniasis in humans, was also evaluated in the BALB/c mice for comparison purposes.

[14] = Body and organ weights of infected, treated BALB/c mice; assay type: in vivo
Description: as §1

[15] = HepG2, read-out: IC50 mammalian HepG2 cells

Row | SMILES | IC50 [1] [µg/mL] | MIC S. aureus [2] | MIC E. faecalis [3] | MIC S. pyogenes [4] | MIC C. glabrata [5] | MIC B. subtilis [6] | MIC P. aeruginosa [7] | MIC B. anthracis [8] | MIC C. albicans [9] | IC50 [10] [µM] | IC50 [12, 15] [µM] | Selectivity Index [10] | other results
1 | C=C[C@@H](C#CC#C[C@H](O)CCCCCCCCCCCCCCC)OC(C)=O (stereo in doubt) [Compound 44, (3S,8R)-8-hydroxytricosa-1-en-4,6-diyn-3-yl acetate] | 2.14 | >1000 | >1000 | >1000 | >1000 | >1000 | >1000 | >1000 | >1000 | 0.287 | – | – | –
2 | C=C[C@H](C#CC#C[C@H](O)CCCCCCCCC)OC(C)=O [Compound 2, (3R,8R)-8-hydroxyheptadeca-1-en-4,6-diyn-3-yl acetate] | 8.07 | – | – | – | – | – | – | – | – | – | – | – | anti-Leishmanial activity at 10 μM [11]: no anti-Leishmanial activity; IC50 [11]: > 10 µM
3 | C=C[C@H](C#CC#C[C@@H](O)CCCCCCCCC)OC(C)=O [Compound 3, (3R,8S)-8-hydroxyheptadeca-1-en-4,6-diyn-3-yl acetate] | 8.15 | – | – | – | – | – | – | – | – | – | – | – | anti-Leishmanial activity at 10 μM [11]: no anti-Leishmanial activity; IC50 [11]: > 10 µM
4 | C=C[C@@H](C#CC#C[C@H](O)CCC)OC(C)=O [Compound 20, (3S,8R)-8-hydroxyundeca-1-en-4,6-diyn-3-yl acetate] | 9.18 | 1000 | 1000 | 250 | 250 | 250 | >1000 | 1000 | 250 | 0.197 | 57 ± 2 | 290 | –
5 | C=C[C@@H](C#CC#C[C@H](N)CCCCCCCCC)OC(C)=O [Compound 45, (3S,8R)-8-aminoheptadeca-1-en-4,6-diyn-3-yl acetate] | – | 1000 | 1000 | 250 | 500 | 250 | >1000 | 250 | 250 | – | – | – | –
6 | C=C[C@@H](C#CC#C[C@@H](CCCCCCCCC)NS(C)(=O)=O)OC(C)=O [Compound 46, (3S,8R)-8-(methylsulfonamido)heptadeca-1-en-4,6-diyn-3-yl acetate] | 4.47 | >1000 | >1000 | 8 | >1000 | 4 | >1000 | >1000 | >1000 | 0.055 | 29 ± 1 | 530 | –
7 | C=C[C@@H](C#CC#C[C@@H](CCCCCCCCC)NC(=O)c1ccccc1)OC(C)=O [Compound 47, (3S,8R)-8-benzamidoheptadeca-1-en-4,6-diyn-3-yl acetate] | 4.85 | >1000 | >1000 | >1000 | >1000 | >1000 | >1000 | >1000 | >1000 | 0.035 | 486 ± 14 | 14,000 | IC50 ([12]; HepG2, read-out: IC50 against the HepG2 cell line): 486 ± 14 µM; LDU mean ± SD ([13]; group mean, n=4): 2979.6; % Reduction (Average) in liver parasitemia [13]: 26.0%; % Reduction (Average) in liver parasitemia ([13]; listed as compound 47): 26%; # of amastigotes per 200 nuclei ([13]; liver, individual mice): 596 and 543 and 595 and 582; LDU ([13]; total liver parasitemia, individual mice): 2960.3 and 2834.7 and 2961.0 and 3162.3; Body weight ([14]; 10 mg/kg i.p., individual mice, Table 4): 18.3 g (2×) and 19.5 g and 18.2 g; Mean body weight of mice Post-treatment ([14]; post-treatment, 10 mg/kg i.p., group mean): 18.6 g; Mean body weight of mice Pre-treatment ([14]; pre-treatment (baseline), group mean): 19.2 g
8 | C=C[C@@H](C#CC#C[C@@H](CCCCCCCCC)OS(C)(=O)=O)OC(C)=O [Compound 49, (3S,8R)-8-((methylsulfonyl)oxy)heptadeca-1-en-4,6-diyn-3-yl acetate] | 2.13 | 250 | 500 | 125 | >1000 | 250 | >1000 | 250 | >1000 | 0.061 | – | – | –
